Measured values as given in patent publication US20130095122A1, “Peptides or Antibodies Which Bind to Melanoma Inhibitory Activity (MIA) Protein” (priority 2010, published 2013).

Legend:
MIA protein dimer = target: T1, MIA protein dimer (Homo sapiens, UniProt Q16674); test: Western blot analysis of MIA dimer bands; type: biochemical; conditions: MIA preincubated with 1 μM peptide (FIG. 2B)
T1 construct: made in house; host or cells: cell-free Rapid Translation System RTS 500 E. coli HY Disulfite Kit (Roche)
T1 sequence (Q16674 25-131): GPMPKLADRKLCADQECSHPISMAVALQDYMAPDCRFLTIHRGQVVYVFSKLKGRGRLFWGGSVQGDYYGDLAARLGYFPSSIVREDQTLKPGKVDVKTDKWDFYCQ
Procedure: Protein samples were denaturated at 70° C. for 10 min after addition of reducing and denaturing Roti-Load buffer (Roth, Karlsruhe, Germany) and subsequently separated on sodium dodecyl sulfate 12.75% polyacrylamid gels (SDS-PAGE) (Invitrogen, Groningen, The Netherlands). In the multimerization studies, MIA protein (1 μg) was incubated with AR71 (2.5 μg) overnight at RT before being treated as described above. After transferring the proteins onto a polyvinylidene fluoride (PVDF) membrane (BioRad, Richmond, Va., USA), the membrane was blocked using 3% BSA/PBS for 1 h at RT and incubated with a 1:150 dilution of primary polyclonal rabbit anti MIA antibody (Biogenes, Berlin, Germany) in 3% BSA/PBS overnight at 4° C. After washing in PBS the membrane was incubated with a 1:2000 dilution of an […] coupled secondary antibody (Chemikon, Hofheim, Germany) for 2 h at RT. Finally, after washing steps, immunoreactions were visualized by nitro blue tetrazolium/5-bromo-4-chloro-3-indolyl phosphate (NBT/BCIP) (Invitrogen, Karlsruhe, Germany) staining.

[1] = tested on: murine B16 melanoma cells; test: In vivo metastasis assay, wt B16 cells injected into spleen, i.v. AR71 treatment; set-up: species or system mice; conditions: i.v. 50 μg every 24 h
Procedure: Additionally, 1×10^5 wt mouse melanoma B16 cells suspended in a solution containing AR71 (1 mg/mL) and 0.9% NaCl, or NaCl alone for the control mice, respectively, were injected into the spleen of each animal (n=8 for treated mice, as well as for control without AR71). Peptide AR71 was injected i.v. (50 μg every 24 h). After nine days, the mice were sacrificed and the livers were excised. Following formalin fixation, tissues were embedded in paraffin. Afterwards, sections were prepared and stained using hematoxylin and eosin before being subjected to histological analysis.
Therefore, wild type murine B16 melanoma cells were injected into the spleen of C57B16 mice with the mice being subsequently treated with i.v. injections of AR71 (50 μg every 24 h). After nine days, the mice were sacrificed, the livers were resected and again tissue sections were prepared. […] Four representative histological liver sections (hematoxylin and eosin stained) of untreated and treated mice, respectively, are shown in FIG. 4E.

Mel Im melanoma cells = test: Boyden chamber invasion assay (MIA activity); type: cell-based, human
Procedure: Invasion assays were performed in Boyden Chambers containing polycarbonate filters with 8-μm pore size (Neuro Probe, Gaithersburg, Md., USA) essentially as described previously.^13 Filters were coated with matrigel, a commercially available reconstituted basement membrane (diluted 1:3 in H2O; BD Bioscience, Bradford, Mass., USA). The lower compartment was filled with fibroblast-conditioned medium used as a chemo attractant. Mel Im melanoma cells were harvested by trypsinization for 2 min at RT, resuspended in DMEM without FCS at a density 2.5×10^4 cells/mL, and placed in the upper compartment of the chamber. Except for the control experiment with untreated cells and experiments where cells were only treated with the respective peptide, MIA was added to the cell suspension at a final concentration of 200 ng/mL. Peptide AR71 (sequence: Ac-FHWRYPLPLPGQ-NH2) was used at a final concentration of 1 μM. MIA expressing murine B16 melanoma cells stably co-transfected with Sig-AR71-HisTag containing pCMX-PL1 vector^27 and an antibiotic resistance comprising plasmid (pCDNA3), and the respective mock control were also investigated for their ability to migrate. Therefore, cells were harvested by trypsinization for 2 min at RT, resuspended in DMEM without FCS at a density 2.5×10^4 cells/mL, and placed in the upper compartment of the chamber. After incubation at 37° C. for 4 h filters were removed. Cells adhering to the lower surface of the filter were fixed, stained, and counted. Experiments were carried out in triplicates and repeated at least three times.

Ac-FHWRYPLPLPGQ-NH2 [AR71, FHWRYPLPLPGQ]
reduction of MIA dimer bands (MIA protein dimer): strong reduction of the dimer bands | adverse effects on other organs and tissues ([1]; nine days): no adverse effects on other organs and tissues were observed | average number of metastases in the liver compared to untreated control mice ([1]; nine days (FIG. 4D)): significant reduction of the average number of metastases in the liver | neutralization of the MIA effect on cell invasion (Mel Im melanoma cells; MIA 200 ng/mL pre-incubated with peptide 1 μM, Mel Im cells (FIG. 2C)): complete neutralization of the effect caused by MIA | migratory behaviour of cells treated with peptide alone (Mel Im melanoma cells; peptide in absence of MIA, Mel Im cells): does not influence the migratory behaviour of melanoma cells
